The values below come from patent US20260072021A1, “SYSTEM, METHOD, AND APPARATUS FOR MICRONEEDLE ARRAY-BASED IMM[…] MULTIPLEX DETECTION OF BIOMARKERS” (The General Hospital Corporation, priority 2022, published 2026).

Series [1] can be described thus: Pharmacokinetic study: blood concentrations of cocaine and BZE in mice after IP cocaine (LC-MS). Conditions: cocaine 1.5 mg/Kg IP, blood sampled at 0, 0.5, 1 and 5 min post-injection. The class given is in vivo. The procedure:
Panel A. Time-dependent blood concentrations of COC and BZE in mice receiving 1.5 mg/Kg cocaine per mouse via IP injection. Panel B. Experimental setup of in vivo detection of circulating COC/BZE using MN-based aptasensor on a B6 black mouse. Panel C. Time-dependent fluorescence intensity of an individual MN that pierces into the mouse skin.
An optical fiber of 500 um in diameter was engineered including 6 emission light collection fibers each at 125 um in diameter, surrounding the single excitation light fiber at the center (FIGS. 13a & 13c). The excitation laser (532-589 nm) is administered directly to the upper dermis via the fiber and transparent MNA to induce skin capillary leakage or extravasation of biomarkers. […] To validate this, cocaine was IP administered at 1.5 mg/Kg per mouse and blood was sampled at 0, 0.5, 1, and 5 min, post-injection. […] When the MNA aptasensor was inserted into the black B6 mice receiving 1.5 mg/kg cocaine intraperitoneally and illuminated with 532 nm laser on the dorsal skin (FIG. 15B), a significant growth of fluorescence intensity as a function of time due to displacement of QDNA by cocaine was clearly seen on individual microneedles (FIG. 15C), confirming the ability of the aptasensor to detect the illicit drug in real time. […]

The conditions of series [2]: humans; cited from earlier work.

Structures are written as SMILES.

For the compound `CN1[C@H]2CC[C@@H]1[C@@H](C(=O)O)[C@@H](OC(=O)c1ccccc1)C2` [BZE, benzoylecgonine], in series [1], the “blood concentration over time” value was “increasing sharply at the first 1 min and then stayed in plateau”.

For the compound `COC(=O)[C@H]1[C@@H](OC(=O)c2ccccc2)C[C@@H]2CC[C@H]1N2C` [cocaine], the “cocaine concentration in blood” value in series [2] is 0.06 to 0.1 mg/L. Moreover, the “blood concentration over time” value in series [1] is reported as “slightly increased over the 5 min”.
